Data on 4 compounds can be found in US5863916A, “8-aza, 6-aza and 6,8-diaza-1,4-dihydroquinoxaline-2,3-diones and the use thereof as antagonists for the glycine/NMDA receptor” (priority 1997, dated 1999).

The target of one series is glycine/NMDA receptor. The series is described as follows: glycine/NMDA receptor affinity (1 μM glycine-stimulated [3H]-MK801 binding, rat brain membranes; also estimated by electrophysiology). As to the method: The assay is conducted using rat brain membrane homogenates that are enriched in NMDA receptors. The membranes are prepared as follows. Frozen rat brains (obtained from Pel-Freez, Rogers, Ark.) are homogenized in 15 volumes (w/v) of ice cold 0.32M sucrose. The homogenate is spun at 1,000×g for ten minutes. The supernatant is collected and spun for 20 minutes at 44,000×g. The pellet is suspended in 15 volumes of water (relative to original brain weight). The homogenate is again spun at 44,000×g for twenty minutes. The pellet is resuspended in 5 volumes of water and the suspension is freeze-thawed 2 times. After the final thaw cycle, the suspension is brought to 15 volumes with water and spun at 44,000×g for twenty minutes. The pellet is resuspended in 5 volumes of ice-cold 10 mM HEPES, and is titrated to pH 7.4 with KOH containing 0.04% Triton X-100. […] The volume is then brought to 15 with ice-cold 10 mM HEPES, pH 7.4, and spun/washed three times with spins of 44,000×g between washes. The final pellet is suspended in three volumes of 50 mM HEPES, pH 7.4 and the protein concentration is determined with a standard dye-binding protein assay (Bio-Rad, Richmond, Calif.). The suspension is stored at -80° C. until used. Only HPLC grade water is used for all buffers and suspensions/washings. The extensive washings are necessary to remove as much endogenous glycine from the membrane preparation as possible.
Nonspecific binding is defined as the […] presence of PCP (final concentration: 100 μM). […] A 500 nM concentration (final) of 5,7-dichlorokynurenic (DCK) acid is added to all assay tubes. This concentration of the glycine antagonist DCK "buffers" most of the residual endogenous glycine that is not removed by the extensive washing steps that are carried out during the membrane preparation procedure.
Filtration is accomplished using a Brandel 48 well cell harvester. Filtered membranes are washed three times with 3 mL each of ice cold buffer. Filters are transferred to scintillation vials and 5 mL of scintillation cocktail is added. The vials are shaken overnight and the radioactivity is counted by liquid scintillation spectroscopy. The assays are done in triplicate and all experiments are conducted at least three times.
(§1) The binding affinities at NMDA receptor glycine sites also were estimated by electrophysiological assay either using cloned rat NMDA receptors expressed in Xenopus oocytes, or non-NMDA receptors expressed in oocytes by whole rat brain poly(A)^+ RNA. […] For NMDA receptors Kb s were approximated by averaging values at three subtype combinations (NR1A/NR2A, NR1A/NR2B, and NR1A/NR2C).

For the next series, the target named is non-NMDA receptor. The series is described as follows: non-NMDA receptor affinity. Format: binding, rat. The protocol: (§2) Filtered membranes are washed three times with 3 mL each of ice cold buffer.
as §2, §1

The next series has as its system MES-induced seizures. The series is described as follows: anticonvulsant activity, maximum electroshock-induced seizure (MES) experiment in mice. Format: in vivo, mouse. The conditions noted are these: Mus musculus, iv, read-out: ED50 as an anticonvulsant in MES experiment. The protocol: The anticonvulsant activity of the glycine antagonists may be assessed in the maximum electroshock-induced seizure (MES) assay in mice. […] The seizure stimulus parameters were: 50 mA, 60 Hz, rectangular pulse, width 0.8 msec, duration 200 msec. Tonic hind limb extension observed after application of the electrical stimulus was recorded as occurrence of seizure. The drug was applied i.v. as an aqueous basic solution.

The subject of the next series is brain ischemia / neurons. The conditions noted are these: cited from earlier work.
The subject of series [1] is PCP-like behavioral effects. The note with it: in vivo; cited from earlier work.
Another series relates to katalepsy. The note with it: pigeons; cited from earlier work.
A short description of the next series: log P (literature). Format: physicochemical. The note with it: from benzene to pyridine N-oxide.
Series [2] relates to strychnine-insensitive glycine sites associated with NMDA receptors. The conditions noted are these: cited from earlier work.

With `O=c1[nH]c2cc([N+](=O)[O-])c[n+]([O-])c2[nH]c1=O` [Compound 64, 7-Nitro-5-(N-oxy)aza-1,4-dihydroquinoxaline-2,3-dione], the results for the Ki at glycine/NMDA receptor and on non-NMDA receptor were 130 nM and 340 nM, respectively. Moreover, the median effective dose (ED50) (as a rule, the dose at which the effect has come halfway, by size or by number of responders) in the series on MES-induced seizures lay within 3 to 4 mg/kg.
For `c1ccc(C2(N3CCCCC3)CCCCC2)cc1` [PCP, phencyclidine], the neuroprotective efficacy result with brain ischemia / neurons is “neuroprotective efficacy both in vitro and in vivo”. Also, the “PCP-like behavioral side effects” value in series [1] was “behavioral excitation (hyperlocomotion) in rodents”. Further, in the series on katalepsy, the katalepsy entry is “characteristic katalepsy in pigeons”.
In the case of `[O-][n+]1ccccc1` [pyridine N-oxide], the “difference in log P” value in “log P (literature)” is listed as -3.84.
Turning to `Oc1nc2cccnc2nc1O` [pyrido (2,3-b)pyrazine-2,3-diol], the “inhibition of [3H]glycine binding” value in series [2] is reported as “active inhibitor”.
